Measurements published in US8637510B2, “Morpholinothiazoles as alpha 7 positive allosteric modulators” (Janssen Pharmaceutica NV, priority 2009, dated 2014).
Structures can show the parent of a compound that is named as a salt.

What was measured:
[1] = biological target: T1, human alpha 7-wt nAChR (Homo sapiens, UniProt P36544); assay: Ca2+ flux imaging (FDSS) (Protocol B); assay type: cell-based; settings: for EC50: potentiation of 100 μM choline, compounds 0.01 μM to 30 μM, read-out: a7-PAM-G_[33]_pEC50 pEC50 (converted); for Emax: read-out: a7-PAM-G_[33]_Eff_Curve_FI % Efficacy
T1 construct: expressed in transfected cells
Procedure, shortened: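 Fluo-4AM-loaded cells expressing human α7-wt nAChR, in HBSS with 10 mM HEPES, 5 mM CaCl2, 0.1% BSA, received compound (0.01–30 μM), typically 10 min before 100 μM choline, with calcium flux read in real time. Potentiation is relative to choline alone (100%); EC50 from sigmoidal curves.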

[2] = efficacy of 100 μM choline defined as 100% in the absence of a PAM

T1 sequence (P36544 23-502): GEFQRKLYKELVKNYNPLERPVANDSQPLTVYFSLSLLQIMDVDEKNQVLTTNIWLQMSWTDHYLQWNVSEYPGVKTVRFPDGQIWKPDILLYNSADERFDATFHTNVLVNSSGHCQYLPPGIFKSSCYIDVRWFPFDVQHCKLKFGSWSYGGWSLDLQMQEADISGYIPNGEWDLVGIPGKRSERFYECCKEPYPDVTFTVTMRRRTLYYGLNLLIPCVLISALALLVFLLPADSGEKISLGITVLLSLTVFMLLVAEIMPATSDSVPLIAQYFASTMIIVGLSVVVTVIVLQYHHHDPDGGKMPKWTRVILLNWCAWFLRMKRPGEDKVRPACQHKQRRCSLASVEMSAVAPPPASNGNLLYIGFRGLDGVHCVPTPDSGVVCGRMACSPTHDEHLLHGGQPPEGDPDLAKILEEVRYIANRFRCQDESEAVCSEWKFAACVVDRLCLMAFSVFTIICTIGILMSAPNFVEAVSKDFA

Structure (SMILES)	melting point [°C]	EC50 [1] [nM]	Emax [1, 2] [%]	a7-PAM-G_[33]_Eff_Curve_FI % Efficacy [1, 2] [%]
Cc1cc(-c2sc(N3CC(C)OC(C)C3)nc2CNC(=O)c2ccc(Cl)cc2)cc(C)n1 (racemic) [Compound 58, 4-chloro-N-[[2-[2,6-dimethyl-4-morpholinyl]-5-(2,6-dimethyl-4-pyridinyl)-4-thiazolyl]methyl]-benzamide]	184	295	–	–
Cc1cc(-c2sc(N3CC(C)OC(C(F)(F)F)C3)nc2CNC(=O)CC2CC2)cc(C)n1 (racemic) [Compound 205, N-[[5-(2,6-dimethyl-4-pyridinyl)-2-[2-methyl-6-(trifluoromethyl)-4-morpholinyl]-4-thiazolyl]methyl]-cyclopropaneacetamide]	148	38	–	883
Cc1cc(-c2sc(N3CC(C)OC(C(F)(F)F)C3)nc2CNC(=O)CC2CC2)cc(C)n1 (single isomer, unassigned) [Compound 133, N-[[5-(2,6-dimethyl-4-pyridinyl)-2-[2-methyl-6-(trifluoromethyl)-4-morpholinyl]-4-thiazolyl]methyl]-cyclopropaneacetamide]	156	115	–	–
Cc1cc(-c2sc(N3CC(C)OC(C(F)(F)F)C3)nc2CNC(=O)CC2CC2)cc(C)n1 (single isomer, unassigned) [Compound 206, N-[[5-(2,6-dimethyl-4-pyridinyl)-2-[2-methyl-6-(trifluoromethyl)-4-morpholinyl]-4-thiazolyl]methyl]-cyclopropaneacetamide]	150	43.7	985	–
Cc1cc(-c2sc(N3C[C@@H](C)O[C@@H](C)C3)nc2CNC(=O)c2ccc(Cl)c(Cl)c2)cc(C)n1 [Compound 35, 3,4-dichloro-N-[[2-[(2R,6S)-2,6-dimethyl-4-morpholinyl]-5-(2,6-dimethyl-4-pyridinyl)-4-thiazolyl]methyl]-benzamide]	185	132	599	–
Cc1cc(-c2sc(N3C[C@@H](C)O[C@@H](C)C3)nc2CNC(=O)c2ccc(F)c(F)c2)cc(C)n1 [Compound 36, N-[[2-[(2R,6S)-2,6-dimethyl-4-morpholinyl]-5-(2,6-dimethyl-4-pyridinyl)-4-thiazolyl]methyl]-3,4-difluoro-benzamide]	189	74.1	869	–
COCC(=O)NCc1nc(N2C[C@@H](C)O[C@@H](C)C2)sc1-c1cc(C)nc(C)c1 [Compound 37, N-[[2-[(2R,6S)-2,6-dimethyl-4-morpholinyl]-5-(2,6-dimethyl-4-pyridinyl)-4-thiazolyl]methyl]-2-methoxy-acetamide]	150	–	293	–
Cc1cc(-c2sc(N3C[C@@H](C)O[C@@H](C)C3)nc2CNC(=O)c2ccc(F)c(F)c2C)cc(C)n1 [Compound 38, N-[[2-[(2R,6S)-2,6-dimethyl-4-morpholinyl]-5-(2,6-dimethyl-4-pyridinyl)-4-thiazolyl]methyl]-3,4-difluoro-2-methyl-benzamide]	187	5.5	–	–
CCCC(=O)NCc1nc(N2C[C@@H](C)O[C@@H](C)C2)sc1-c1cc(C)nc(C)c1 [Compound 41, N-[[2-[(2R,6S)-2,6-dimethyl-4-morpholinyl]-5-(2,6-dimethyl-4-pyridinyl)-4-thiazolyl]methyl]-butanamide]	155	102	657	–
Cc1cc(-c2sc(N3C[C@@H](C)O[C@@H](C)C3)nc2CNC(=O)CC#N)cc(C)n1 [Compound 170, 2-cyano-N-[[2-[(2R,6S)-2,6-dimethyl-4-morpholinyl]-5-(2,6-dimethyl-4-pyridinyl)-4-thiazolyl]methyl]-acetamide]	–	3090	499	–
Cc1cc(-c2sc(N3C[C@@H](C)O[C@@H](C)C3)nc2CNC(=O)C2(O)CC2)cc(C)n1 [Compound 176, N-[[2-[(2R,6S)-2,6-dimethyl-4-morpholinyl]-5-(2,6-dimethyl-4-pyridinyl)-4-thiazolyl]methyl]-1-hydroxy-cyclopropanecarboxamide]	–	–	149	–
Cc1cc(-c2sc(N3C[C@@H](C)O[C@@H](C)C3)nc2CNC(=O)C(F)(F)F)cc(C)n1 [Compound 177, N-[[2-[(2R,6S)-2,6-dimethyl-4-morpholinyl]-5-(2,6-dimethyl-4-pyridinyl)-4-thiazolyl]methyl]-2,2,2-trifluoro-acetamide]	–	–	26	–
Cc1cc(-c2sc(N3CCOC(C)(C)C3)nc2CNC(=O)C(C)C)cc(C)n1 [Compound 183, N-[[2-(2,2-dimethyl-4-morpholinyl)-5-(2,6-dimethyl-4-pyridinyl)-4-thiazolyl]methyl]-2-methyl-propanamide]	–	2750	–	–
Cc1cc(-c2sc(N3CCOC[C@@H]3C)nc2CNC(=O)C(C)C)cc(C)n1 [Compound 188, N-[[5-(2,6-dimethyl-4-pyridinyl)-2-[(3S)-3-methyl-4-morpholinyl]-4-thiazolyl]methyl]-2-methyl-propanamide]	–	5010	685	–
Cc1cc(-c2sc(N3C[C@@H](C)O[C@@H](C(F)(F)F)C3)nc2CNC(=O)CC2CC2)cc(C)n1 [Compound 203, N-[[5-(2,6-dimethyl-4-pyridinyl)-2-[(2R,6R)-2-methyl-6-(trifluoromethyl)-4-morpholinyl]-4-thiazolyl]methyl]-cyclopropaneacetamide]	–	7.24	–	–
Cc1cc(-c2sc(N3C[C@@H](C(F)(F)F)O[C@@H](C)C3)nc2CNC(=O)CC2CC2)cc(C)n1 [Compound 204, N-[[5-(2,6-dimethyl-4-pyridinyl)-2-[(2S,6S)-2-methyl-6-(trifluoromethyl)-4-morpholinyl]-4-thiazolyl]methyl]-cyclopropaneacetamide]	–	31.6	392	–

Second part, the molecule after the results:

melting point [°C]	EC50 [1] [nM]	Emax [1, 2] [%]	a7-PAM-G_[33]_Eff_Curve_FI % Efficacy [1, 2] [%]	Structure (SMILES)
166	1620	938	–	Cc1cc(-c2sc(N3CC(C)OC(C)C3)nc2CNC(=O)c2cc(C)on2)cc(C)n1 (racemic) [Compound 59, N-[[2-[2,6-dimethyl-4-morpholinyl]-5-(2,6-dimethyl-4-pyridinyl)-4-thiazolyl]methyl]-5-methyl-3-isoxazolecarboxamide]
185	81.3	–	–	Cc1cc(-c2sc(N3CCOC(C)C3)nc2CNC(=O)c2ccc(F)cc2C)cc(C)n1 (single isomer, unassigned) [Compound 70, N-[[5-(2,6-dimethyl-4-pyridinyl)-2-[(2S*)-2-methyl-4-morpholinyl]-4-thiazolyl]methyl]-4-fluoro-2-methyl-benzamide]
138	2000	–	–	Cc1cc(C(=O)NCc2nc(N3CCOC(C)C3)sc2-c2cc(C)nc(C)c2)on1 (single isomer, unassigned) [Compound 72, N-[[5-(2,6-dimethyl-4-pyridinyl)-2-[(2S*)-2-methyl-4-morpholinyl]-4-thiazolyl]methyl]-3-methyl-5-isoxazolecarboxamide]
167	2000	–	–	Cc1cc(-c2sc(N3CCOC(C)C3)nc2CNC(=O)c2cc(C)on2)cc(C)n1 (single isomer, unassigned) [Compound 74, N-[[5-(2,6-dimethyl-4-pyridinyl)-2-[(2R*)-2-methyl-4-morpholinyl]-4-thiazolyl]methyl]-5-methyl-3-isoxazolecarboxamide]
188	107	809	–	Cc1cc(-c2sc(N3CCOC(C)C3)nc2CNC(=O)c2ccc(F)cc2C)cc(C)n1 (single isomer, unassigned) [Compound 77, N-[[5-(2,6-dimethyl-4-pyridinyl)-2-[(2R*)-2-methyl-4-morpholinyl]-4-thiazolyl]methyl]-4-fluoro-2-methyl-benzamide]
166	1660	–	–	Cc1cc(-c2sc(N3CCOC(C)C3)nc2CNC(=O)c2cc(C)on2)cc(C)n1 (single isomer, unassigned) [Compound 79, N-[[5-(2,6-dimethyl-4-pyridinyl)-2-[(2S*)-2-methyl-4-morpholinyl)-4-thiazolyl]methyl]-5-methyl-3-isoxazolecarboxamide]
–	776	425	–	Cc1cc(-c2sc(N3C[C@@H](C)O[C@@H](C)C3)nc2CNC(=O)c2oc(C)cc2C)cc(C)n1 [Compound 173, N-[[2-[(2R,6S)-2,6-dimethyl-4-morpholinyl]-5-(2,6-dimethyl-4-pyridinyl)-4-thiazolyl]methyl]-3,5-dimethyl-2-furancarboxamide]
–	1910	991	–	Cc1cc(-c2sc(N3CCOC(C)(C)C3)nc2CNC(=O)c2cc(C)on2)cc(C)n1 [Compound 181, N-[[2-(2,2-dimethyl-4-morpholinyl)-5-(2,6-dimethyl-4-pyridinyl)-4-thiazolyl]methyl]-5-methyl-3-isoxazolecarboxamide]
–	1450	702	–	Cc1cc(-c2sc(N3CCOC(C)(C)C3)nc2CNC(=O)c2conc2C)cc(C)n1 [Compound 182, N-[[2-(2,2-dimethyl-4-morpholinyl)-5-(2,6-dimethyl-4-pyridinyl)-4-thiazolyl]methyl]-3-methyl-4-isoxazolecarboxamide•HCl]
–	4790	835	–	Cc1cc(-c2sc(N3CCOC[C@@H]3C)nc2CNC(=O)c2conc2C)cc(C)n1 [Compound 185, N-[[5-(2,6-dimethyl-4-pyridinyl)-2-[(3S)-3-methyl-4-morpholinyl]-4-thiazolyl]methyl]-3-methyl-4-isoxazolecarboxamide]
–	3800	945	–	Cc1cc(-c2sc(N3CCOC[C@@H]3C)nc2CNC(=O)c2cc(C)on2)cc(C)n1 [Compound 186, N-[[5-(2,6-dimethyl-4-pyridinyl)-2-[(3S)-3-methyl-4-morpholinyl]-4-thiazolyl]methyl]-5-methyl-3-isoxazolecarboxamide]
